These are literature values, as cited in patent US9060510B2 (priority 2005, dated 2015).

Read-outs that look alike come from different tables or passages of the source.

For the molecule `CCN(Cc1ccc(Cl)nc1)/C(=C/[N+](=O)[O-])NC` [Nitempyram, (E)-N-(6-chloro-3-pyridylmethyl)-N-ethyl-N′-methyl-2-nitrovinylidenediamine], the water-solubility (at pH 7.0, 20° C.) is greater than 590 mg/mL.

For “(E)-1-(2-chloro-1,3-thiazol-5-yl)-3-methyl-2-nitroguanidine [Clothianidin]”, the water-solubility (at pH 4.0, 20° C.) was 0.304 mg/mL.
